Assays:
human cathepsin H = biological target: T1, human cathepsin H (Homo sapiens, UniProt P09668); assay: Enzyme assay, human cathepsin H; type: biochemical
T1 construct: purchased Athens Research Technology
Description: (§1) Recombinant cathepsin K enzymes from all species were expressed in E. coli, purified and activated. Human cathepsin F and cathepsin S were expressed in Baculovirus, purified and activated. Purified human cathepsins B and H (Athens Research Technology), cathepsin L (Calbiochem), and cathepsin V (R & D Systems) were purchased.
(§2) H-D-Ala_Leu-Lys-AMC was used as the substrate in assays of cathepsin K from non-rodent species (human, dog, rabbit and guinea pig), and Z-Leu-Arg-AMC was used as the substrate in assays of cathepsin K from rodent species (mouse and rat). […]
(§3) Assays were carried out in white polystyrene 96-well plates in a final volume of 100 µL. […] Plates were read in a Fluoroskan Ascent (Thermo Labsystems, Helsinki, Finland) in kinetic mode, with excitation and emission filters of 390 and 460 nm, respectively. Rates were determined by linear regression of the fluorescence/time data in Excel. Rates were fitted by non-linear regression to either the competitive inhibition equation, with the substrate concentration fixed at the value in the assay and the KM fixed to the value previously determined, or the IC50 equation using GraphPad Prism (GraphPad, version 6, San Diego, USA) to obtain Ki or IC50 values, respectively.

human cathepsin B = biological target: T2, human cathepsin B (Homo sapiens, UniProt P07858); assay: Enzyme assay, human cathepsin B; type: biochemical
T2 construct: purchased Athens Research Technology
Description: as §1, §2, §3

[1] = Monkey plasma pharmacokinetics, single oral dose; type: in vivo, cynomolgus monkeys (Macaca fascicularis); details: for AUC0–t / AUCinf / Cmax / Cmax/dose / t½: geometric mean (CV%); for tmax: median (min–max)
Description: Eight cynomolgus monkeys (Macaca fascicularis) were used for measuring plasma levels of MIV-711 and CTX-I after a single dose. The animals were healthy young males, approximately 2–4 years old and weighing 3–4 kg. Experiments were performed at Covance Ltd (Harrogate, UK). The monkeys were used over an extended period of time (up to a year) and several cathepsin K inhibitors were evaluated during this time. At least 1 week was allowed for washout in between experiments. This was not believed to affect the results with MIV-711, and vehicle controls were run on a regular basis when appropriate. Each animal received at least one dose of MIV-711 and one dose of vehicle with at least 1 week of washout in between treatments.
In single dose experiments, animals were dosed with vehicle or MIV-711 (3–30 µmol/kg) via oral gavage at a dose volume of 4 mL/kg between 7:30 and 9:00 a.m. Blood samples were collected at baseline, 30 min, 1, 2, 4, 8, 12, 24 and 48 h after dose from the femoral vein and transferred into lithium heparin anticoagulant tubes. The samples were centrifuged and the two aliquots of the resultant plasma were frozen at − 70 °C. All samples were processed and stored within 30 min of collection. The aliquots were used to determine the MIV-711 concentration and CTX-I levels, respectively. [drawing 1]
The quantification of MIV-711 in monkey plasma was performed by taking 10–50 µL of plasma and mixing with 3 volumes of acetonitrile (10 s, Vibrofix). The sample was centrifuged (10 min, 20,000×g, 7 °C) and 5 µL of the supernatant was injected onto the liquid chromatography with tandem mass spectrometric detection (LC–MS/MS) system. The lowest concentration of the standard curves and the lower limit of quantification (LLOQ) was 1 nmol/L of MIV-711. The human plasma samples were prepared by protein precipitation for sample extraction followed by LC–MS/MS. The lowest concentration of the standard curves and the LLOQ was 4 nmol/L of MIV-711 using 25 µL of plasma.

T1 sequence (P09668 98-335): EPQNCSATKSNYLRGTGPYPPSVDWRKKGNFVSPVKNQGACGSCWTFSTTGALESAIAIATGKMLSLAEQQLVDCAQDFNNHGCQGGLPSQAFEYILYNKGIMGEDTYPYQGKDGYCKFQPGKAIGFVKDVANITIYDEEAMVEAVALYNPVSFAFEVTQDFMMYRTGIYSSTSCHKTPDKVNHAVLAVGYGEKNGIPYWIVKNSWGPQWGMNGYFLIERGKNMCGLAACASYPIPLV

Compound: C#C[C@@H]1CN(C(=O)[C@H](CC(C)C)NC(=O)c2ccc(-c3nc(N4CCN(C)CC4)sc3F)cc2)[C@@H]2C(=O)CO[C@H]12 [MIV-711]
- Ki (human cathepsin H): > 10000 nM
- Ki (human cathepsin B): 1300 nM
- AUC0–t ([1]; 3 µmol/kg p.o. single dose): 0.400 (60) µmol/L × h
- AUCinf ([1]; 3 µmol/kg p.o. single dose): 0.409 (62) µmol/L × h
- Cmax ([1]; 3 µmol/kg p.o. single dose): 102 nM
- Cmax/dose ([1]; 3 µmol/kg p.o. single dose): 0.034 (65)
- t½ ([1]; 3 µmol/kg p.o. single dose): 2.1 (16) h
- tmax ([1]; 3 µmol/kg p.o. single dose): 2.0 (2.0–2.0) h
- AUC0–t ([1]; 10 µmol/kg p.o. single dose): 0.881 (52) µmol/L × h
- AUCinf ([1]; 10 µmol/kg p.o. single dose): 0.932 (46) µmol/L × h
- Cmax ([1]; 10 µmol/kg p.o. single dose): 164 nM
- Cmax/dose ([1]; 10 µmol/kg p.o. single dose): 0.016 (41)
- t½ ([1]; 10 µmol/kg p.o. single dose): 3.1 (52) h
- tmax ([1]; 10 µmol/kg p.o. single dose): 2.0 (0.50–4.0) h
- AUC0–t ([1]; 30 µmol/kg p.o. single dose): 6.21 (62) µmol/L × h
- AUCinf ([1]; 30 µmol/kg p.o. single dose): 6.28 (62) µmol/L × h
- Cmax ([1]; 30 µmol/kg p.o. single dose): 923 nM
- Cmax/dose ([1]; 30 µmol/kg p.o. single dose): 0.031 (56)
- t½ ([1]; 30 µmol/kg p.o. single dose): 3.4 (30) h
- tmax ([1]; 30 µmol/kg p.o. single dose): 2.0 (1.0–4.0) h
- Plasma concentration at 24 h post-dose ([1]; highest dose group (30 µmol/kg p.o.)): approximately 10 nmol/L
- Plasma concentration at 24 h post-dose ([1]; lowest dose group (3 µmol/kg p.o.), below LLOQ): < 1 nM
